For 22 compounds, T/C results are on record in PubChem BioAssay AID328 (DTP/NCI, 2004).

Structures are written as SMILES. Several values for one entry are separate records, joined by “and”; a condition that tells them apart may be missing. Identical values can stand only once. Inconclusive results and toxic doses are left out.

The test system of this assay is BDF1 mice, P388 leukemia ip, median survival T/C. The experiment in a line: NCI In Vivo Anticancer Drug Screen. Data for tumor model P388 Leukemia (intraperitoneal) in B6D2F1 (BDF1) mice. The note with it: endpoint: median survival time, higher = longer survival. The method, boiled down:
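Read-out is survival of treated animals expressed relative to the vehicle group, as a T/C ratio.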

Setting [1] is: dose: 50.0 mg/kg/injection, schedule: Q01DX009 (ip), vehicle: saline.
[2] abbreviates: dose: 100.0 mg/kg/injection, schedule: Q01DX009 (ip), vehicle: saline.
Where [3] appears, read: dose: 25.0 mg/kg/injection, schedule: Q01DX009 (ip), vehicle: saline with Tween-80.
Where [4] appears, read: dose: 50.0 mg/kg/injection, schedule: Q01DX009 (ip), vehicle: saline with Tween-80.
Setting [5] is: dose: 100.0 mg/kg/injection, schedule: Q01DX009 (ip), vehicle: saline with Tween-80.
[6] abbreviates: dose: 100.0 mg/kg/injection, schedule: Q04DX003 (ip), vehicle: saline with Tween-80.
[7] abbreviates: dose: 200.0 mg/kg/injection, schedule: Q04DX003 (ip), vehicle: saline with Tween-80.
The mark [8] stands for this setting: dose: 400.0 mg/kg/injection, schedule: Q01DX009 (ip), vehicle: saline with Tween-80.
Setting [9] is: dose: 400.0 mg/kg/injection, schedule: Q04DX003 (ip), vehicle: saline with Tween-80.
Where [10] appears, read: dose: 100.0 mg/kg/injection, schedule: Q04DX003 (ip), vehicle: Klucel (hydroxypropylcellulose) (HPC).
Where [11] appears, read: dose: 200.0 mg/kg/injection, schedule: Q04DX003 (ip), vehicle: Klucel (hydroxypropylcellulose) (HPC).
Setting [12] is: dose: 100.0 mg/kg/injection, schedule: Q04DX003 (ip), vehicle: saline.
[13] abbreviates: dose: 200.0 mg/kg/injection, schedule: Q04DX003 (ip), vehicle: saline.
The mark [14] stands for this setting: dose: 400.0 mg/kg/injection, schedule: Q04DX003 (ip), vehicle: saline.
Where [15] appears, read: dose: 200.0 mg/kg/injection, schedule: Q01DX009 (ip), vehicle: saline.
Where [16] appears, read: dose: 200.0 mg/kg/injection, schedule: Q01DX009 (ip), vehicle: saline with Tween-80.

With `O=C(CC(O)(C(F)(F)F)C(F)(F)F)c1ccc([N+](=O)[O-])cc1`, the T/C by setting is: (dose: 100.0 mg/kg/injection, schedule: Q01DX009 (ip), vehicle: other) 95 % of control; (dose: 100.0 mg/kg/injection, schedule: Q04DX003 (ip), vehicle: other) 110 % of control; (dose: 200.0 mg/kg/injection, schedule: Q01DX009 (ip), vehicle: other) 95 % of control; (dose: 200.0 mg/kg/injection, schedule: Q04DX003 (ip), vehicle: other) 95 % of control; (dose: 400.0 mg/kg/injection, schedule: Q01DX009 (ip), vehicle: other) 100 % of control; (dose: 400.0 mg/kg/injection, schedule: Q04DX003 (ip), vehicle: other) 100 % of control.

In the case of `O=C(O)C(O)C(O)C1[O][Sb][O]C1CO` (stereo not given), the T/C is, setting by setting: (dose: 22.0 mg/kg/injection, schedule: Q04DX003 (ip), vehicle: saline) 110 % of control; under setting [1], 150 % of control; (dose: 75.0 mg/kg/injection, schedule: Q01DX009 (ip), vehicle: saline) 155 % of control; under setting [2], 166 % of control; (dose: 150.0 mg/kg/injection, schedule: Q01DX009 (ip), vehicle: saline) 155 % of control; (dose: 150.0 mg/kg/injection, schedule: Q04DX003 (ip), vehicle: saline) 177 % of control. The T/C (dose: 225.0 mg/kg/injection, schedule: Q01DX009 (ip), vehicle: saline) is 150 % of control and 183 % of control.

`C=C(C)CNc1ccccc1`: the T/C was 119 % of control under setting [3]; 123 % of control under setting [4]; 103 % of control and 123 % of control under setting [5].

Take `CCOC(=O)C(Cc1ccccc1Cl)(NC(C)=O)C(=O)OCC`: the T/C was 100 % of control under setting [5]; 90 % of control under setting [6]; 100 % of control under setting [7]; 90 % of control under setting [8]; 104 % of control under setting [9].

Regarding `Cc1c(Cc2ccccc2)[n+](=O)c2ccccc2n1[O-]`, the T/C reads like this: under setting [10], 100 % of control; under setting [11], 105 % of control.

`Cc1cccc(NC(=O)c2ccccc2C(=O)O)c1C`: the T/C is 91 % of control under setting [10]; 91 % of control under setting [11]; 100 % of control (dose: 400.0 mg/kg/injection, schedule: Q04DX003 (ip), vehicle: Klucel (hydroxypropylcellulose) (HPC)).

On to `CC(=O)[C@H]1[C@H](O)C[C@H]2[C@@H]3CCC4=CC(=O)CC[C@]4(C)[C@@]3(F)[C@@H](O)C[C@@]21C`, for which the T/C was 100 % of control under setting [12], 113 % of control under setting [13] and 113 % of control under setting [14].

Turning to `FCc1nc2nc(Cl)c(Cl)nc2[nH]1`, the T/C is 96 % of control (dose: 1.0 mg/kg/injection, schedule: Q01DX009 (ip), vehicle: saline); 99 % of control and 100 % of control (dose: 2.0 mg/kg/injection, schedule: Q01DX009 (ip), vehicle: saline); 90 % of control and 105 % of control (dose: 4.0 mg/kg/injection, schedule: Q01DX009 (ip), vehicle: saline); 99 % of control (dose: 8.0 mg/kg/injection, schedule: Q01DX009 (ip), vehicle: saline); 100 % of control (dose: 16.0 mg/kg/injection, schedule: Q01DX009 (ip), vehicle: saline); 104 % of control (dose: 50.0 mg/kg/injection, schedule: Q04DX003 (ip), vehicle: saline). Further, under setting [12], the T/C was 101 % of control.

Take `O=[N+]([O-])c1ccc(N/N=C\c2ccc3ccccc3n2)cc1`: the T/C reads like this: under setting [2], 104 % of control; under setting [12], 118 % of control; under setting [15], 109 % of control; under setting [13], 104 % of control; under setting [14], 109 % of control.

For `COc1ccccc1N1CCN(CC(O)COc2ccccc2C(C)=O)CC1` (stereo not given), the T/C is 95 % of control under setting [3], 91 % of control under setting [4] and 112 % of control under setting [5].

With `CCOC(=O)CCC(C)(c1ccc(O)cc1)c1ccc(O)cc1`, the T/C by setting is: (dose: 50.0 mg/kg/injection, schedule: Q01DX009 (ip), vehicle: gum acacia) 95 % of control; (dose: 100.0 mg/kg/injection, schedule: Q01DX009 (ip), vehicle: gum acacia) 108 % of control; (dose: 100.0 mg/kg/injection, schedule: Q04DX003 (ip), vehicle: gum acacia) 104 % of control; (dose: 200.0 mg/kg/injection, schedule: Q01DX009 (ip), vehicle: gum acacia) 100 % of control; (dose: 200.0 mg/kg/injection, schedule: Q04DX003 (ip), vehicle: gum acacia) 104 % of control; (dose: 400.0 mg/kg/injection, schedule: Q04DX003 (ip), vehicle: gum acacia) 104 % of control.

For the compound `O=[N+]([O-])[O-].OCCNCCNCC[OH2+].OCCNCCNCC[OH2+].[Cu+2]`, the T/C is 97 % of control (dose: 6.25 mg/kg/injection, schedule: Q01DX009 (ip), vehicle: saline); 100 % of control (dose: 12.5 mg/kg/injection, schedule: Q01DX009 (ip), vehicle: saline); 88 % of control (dose: 25.0 mg/kg/injection, schedule: Q01DX009 (ip), vehicle: saline).

Turning to `C=CC[NH-].C=CC[NH-].CC(=O)CC(C)=O.CC(=O)CC(C)=O.[Ni+2]`, the T/C (dose: 6.25 mg/kg/injection, schedule: Q04DX002 (ip), vehicle: saline) is 107 % of control; the T/C (dose: 12.5 mg/kg/injection, schedule: Q04DX002 (ip), vehicle: saline) was 100 % of control; the T/C (dose: 25.0 mg/kg/injection, schedule: Q04DX002 (ip), vehicle: saline) is 117 % of control.

Consider `COC(=O)c1ccc(CSc2ccccc2NC(=S)Nc2cccc(C(F)(F)F)c2)o1`, for which the T/C under setting [16] was 90 % of control.

Turning to `CC1CN1P(=S)(N1CC1C)N1CC1C` (stereo not given), the T/C is, setting by setting: (dose: 1.25 mg/kg/injection, schedule: Q01DX010 (ip), vehicle: saline) 104 % of control; (dose: 2.5 mg/kg/injection, schedule: Q01DX010 (ip), vehicle: saline) 104 % of control; (dose: 5.0 mg/kg/injection, schedule: Q01DX010 (ip), vehicle: saline) 104 % of control; (dose: 10.0 mg/kg/injection, schedule: Q01DX010 (ip), vehicle: saline) 104 % of control.

In the case of `CCOc1nc(S(=O)(=O)CC)ncc1C`, the T/C under setting [3] was 92 % of control; the T/C (dose: 75.0 mg/kg/injection, schedule: Q01DX009 (ip), vehicle: saline with Tween-80) was 90 % of control; the T/C under setting [6] was 105 % of control; the T/C (dose: 150.0 mg/kg/injection, schedule: Q01DX009 (ip), vehicle: saline with Tween-80) was 106 % of control; the T/C under setting [7] is 96 % of control; the T/C under setting [9] was 96 % of control.

In the case of `O=C(/C=C/c1ccccc1)c1cccc(Br)c1`, the T/C runs as follows: under setting [5], 91 % of control; under setting [6], 109 % of control; under setting [16], 98 % of control; under setting [7], 104 % of control; under setting [8], 119 % of control; under setting [9], 104 % of control.

For the compound `C#CC(c1ccccc1)(c1ccccc1)n1ccnc1`, the T/C is, setting by setting: under setting [4], 98 % of control; under setting [5], 100 % of control; under setting [16], 98 % of control.

On to `CC(O)C(N)C(=O)NCCc1nc(-c2nc(C(=O)NCCCBr)cs2)cs1` (stereo not given), for which the T/C is, setting by setting: under setting [1], 106 % of control; under setting [2], 94 % of control; under setting [15], 103 % of control.

Turning to `C=CC(c1ccccc1)C(O)(Cc1ccccc1)Cc1ccccc1` (stereo not given), the T/C runs as follows: (dose: 12.5 mg/kg/injection, schedule: Q01DX009 (ip), vehicle: DMSO) 116 % of control; (dose: 50.0 mg/kg/injection, schedule: Q01DX009 (ip), vehicle: DMSO) 100 % of control.

In the case of `CCOC(=O)C(CC(OCC)OCC)C(=O)OCC`, the T/C is, setting by setting: under setting [5], 100 % of control; under setting [6], 104 % of control; under setting [16], 91 % of control; under setting [7], 113 % of control; under setting [8], 122 % of control; under setting [9], 113 % of control.

With `COC(=O)c1cc(C)c(Br)c(OC)c1`, the T/C is, setting by setting: (dose: 12.0 mg/kg/injection, schedule: Q01DX009 (ip), vehicle: Klucel (hydroxypropylcellulose) (HPC)) 95 % of control; (dose: 25.0 mg/kg/injection, schedule: Q01DX009 (ip), vehicle: Klucel (hydroxypropylcellulose) (HPC)) 90 % of control; (dose: 50.0 mg/kg/injection, schedule: Q01DX009 (ip), vehicle: Klucel (hydroxypropylcellulose) (HPC)) 90 % of control.
